According to patent US12281119B2, “Imidazo[2,1-f][1,2,4]triazin-4-amine derivatives as TLR7 agonist” (BEIGENE, LTD., priority 2019, dated 2025):

How the values were obtained:
Assay type in all cases: cell-based
[1] = molecular target: T1, human TLR 8 protein (Homo sapiens, UniProt Q9NR97); assay: TLR8 stimulation determined using HEK-Blue Detection; settings: HEK-Blue hTLR8 cells, 16 hr, relative to Resiquimod or Motolimod maximum
T1 construct: expressed in transfected cells; host or cells: HEK293 (HEK-Blue hTLR8)
T1 sequence (Q9NR97 27-1041): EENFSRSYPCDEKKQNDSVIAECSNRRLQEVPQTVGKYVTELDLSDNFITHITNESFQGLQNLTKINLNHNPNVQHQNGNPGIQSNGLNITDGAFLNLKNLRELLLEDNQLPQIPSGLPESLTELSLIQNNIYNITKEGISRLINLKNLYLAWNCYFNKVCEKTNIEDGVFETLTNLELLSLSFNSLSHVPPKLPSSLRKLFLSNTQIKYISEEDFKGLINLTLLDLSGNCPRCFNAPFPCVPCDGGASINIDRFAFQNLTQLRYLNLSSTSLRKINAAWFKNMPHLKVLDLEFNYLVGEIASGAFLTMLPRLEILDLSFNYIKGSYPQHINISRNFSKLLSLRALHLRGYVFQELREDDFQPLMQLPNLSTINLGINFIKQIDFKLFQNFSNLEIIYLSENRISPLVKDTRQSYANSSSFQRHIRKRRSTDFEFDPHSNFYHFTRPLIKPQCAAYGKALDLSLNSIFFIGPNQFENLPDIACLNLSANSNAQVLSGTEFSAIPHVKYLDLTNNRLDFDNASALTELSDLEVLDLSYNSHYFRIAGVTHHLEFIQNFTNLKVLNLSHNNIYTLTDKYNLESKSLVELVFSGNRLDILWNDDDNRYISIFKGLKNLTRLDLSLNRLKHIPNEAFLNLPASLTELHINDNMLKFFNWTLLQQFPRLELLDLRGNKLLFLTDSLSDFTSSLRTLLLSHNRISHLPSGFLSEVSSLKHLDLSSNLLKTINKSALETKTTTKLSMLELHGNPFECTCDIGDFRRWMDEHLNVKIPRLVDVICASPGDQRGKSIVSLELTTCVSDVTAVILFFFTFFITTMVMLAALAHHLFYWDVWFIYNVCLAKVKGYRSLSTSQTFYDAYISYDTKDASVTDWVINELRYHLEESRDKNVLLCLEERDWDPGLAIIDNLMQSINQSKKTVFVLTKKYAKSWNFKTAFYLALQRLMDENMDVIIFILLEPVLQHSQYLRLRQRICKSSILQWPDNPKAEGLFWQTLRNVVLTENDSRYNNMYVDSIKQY
From the text: TLR8 Stimulation Determined Using HEK-Blue Detection
This assay was designed for studying the stimulation of human TLR 8 protein in HEK-Blue hTLR8 tool cell line by monitoring the activation of NF-1B. HEK-Blue hTLR8 cells were obtained by co-transfection of the hTLR8 gene and an optimized secreted embryonic alkaline phosphatase (SEAP) reporter gene into HEK293 cells. The SEAP reporter gene was placed under the control of the IFN-β minimal promoter fused to five NF-κB and AP-1-binding sites. Stimulation with a TLR 8 ligand activates NF-κB and AP-1 which induce the expression of SEAP. Levels of SEAP can be easily determined with HEK-Blue Detection, a cell culture medium that allows for real-time detection of SEAP. HEK-Blue Detection contains all the nutrients necessary for cell growth and a specific SEAP color substrate. The hydrolysis of the substrate by SEAP produces a purple/blue color that can be measured with a spectrophotometer.
When growing to 50-80% confluency, HEK-Blue hTLR7/8 cells were plated into 96-well plate (costar 3599) at a density of 40000 cells/well. Then compounds were added with serial dilutions over 10 points with a 1 nM-10 uM final concentration range in 0.1% DMSO/HEK-Blue Detection. The plates were then incubated for 16 hr at 37° C. in 5% CO2. The optical density at 620-655 nm was read on BMG PHERAstar FSX instrument. The EC50 for each compound was determined by calculating the percentages of the maximum activation identified with Resiquimod or Motolimod.

[2] = molecular target: T2, human TLR7 (Homo sapiens, UniProt Q9NYK1); assay: TLR7 stimulation determined using HEK-Blue Detection; set-up: expressed in transfected cells; host or cells: HEK293 (HEK-Blue hTLR7); settings: HEK-Blue hTLR7 cells, HEK-Blue Detection (A77-A124), 16 hr, relative to Resiquimod maximum
T2 sequence (Q9NYK1 27-1049): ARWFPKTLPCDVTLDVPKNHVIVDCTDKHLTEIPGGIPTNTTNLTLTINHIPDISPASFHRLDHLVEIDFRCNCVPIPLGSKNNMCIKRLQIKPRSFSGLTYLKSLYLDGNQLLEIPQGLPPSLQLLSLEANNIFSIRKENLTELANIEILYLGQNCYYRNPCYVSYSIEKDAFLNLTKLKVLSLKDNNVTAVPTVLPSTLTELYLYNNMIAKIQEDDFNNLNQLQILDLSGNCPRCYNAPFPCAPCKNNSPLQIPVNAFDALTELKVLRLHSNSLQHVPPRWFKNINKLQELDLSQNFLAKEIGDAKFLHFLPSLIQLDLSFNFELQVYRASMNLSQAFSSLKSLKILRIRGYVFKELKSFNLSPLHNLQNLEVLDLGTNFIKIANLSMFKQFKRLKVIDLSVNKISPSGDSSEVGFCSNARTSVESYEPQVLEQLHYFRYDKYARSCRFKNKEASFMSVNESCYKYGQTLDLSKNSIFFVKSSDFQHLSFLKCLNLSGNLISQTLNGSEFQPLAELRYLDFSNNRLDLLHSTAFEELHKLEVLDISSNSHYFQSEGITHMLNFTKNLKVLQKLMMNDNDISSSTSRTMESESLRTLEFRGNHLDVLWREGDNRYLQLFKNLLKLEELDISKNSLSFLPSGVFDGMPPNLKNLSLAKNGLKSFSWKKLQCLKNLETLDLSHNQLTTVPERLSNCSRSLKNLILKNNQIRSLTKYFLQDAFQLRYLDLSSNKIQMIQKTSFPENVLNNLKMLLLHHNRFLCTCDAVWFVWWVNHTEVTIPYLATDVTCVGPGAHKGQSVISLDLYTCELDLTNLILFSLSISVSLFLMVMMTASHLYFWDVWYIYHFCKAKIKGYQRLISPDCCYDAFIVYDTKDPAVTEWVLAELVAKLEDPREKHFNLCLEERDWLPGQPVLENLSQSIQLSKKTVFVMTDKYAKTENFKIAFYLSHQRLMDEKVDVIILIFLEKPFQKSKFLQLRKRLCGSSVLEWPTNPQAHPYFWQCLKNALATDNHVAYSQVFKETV
From the text: TLR7 Stimulation Determined Using HEK-Blue Detection
This assay was designed for studying the stimulation of human TLR7 protein in HELK-Blue hTLR7 tool cell line by monitoring the activation of NF-κB. HEK-Blue hTLR7 cells were obtained by co-transfection of the hTLR7 gene and an optimized secreted embryonic alkaline phosphatase (SLAP) reporter gene into HEK293 cells. The SLAP reporter gene was placed under the control of the IFN-β minimal promoter fused to five NF-κB and AP-1-binding sites. Stimulation with a TLR7 ligand activates NF-κB and AP-1 which induce the expression of SLAP. Levels of SLAP can be easily determined with HEK-Blue Detection, a cell culture medium that allows for real-time detection of SLAP. HLK-Blue Detection contains all the nutrients necessary for cell growth and a specific SLAP color substrate. The hydrolysis of the substrate by SLAP produces a purple/blue color that can be measured with a spectrophotometer.
When growing to 50-80%0 confluency, HLK-Blue hTLR7 cells were plated into 96-well plate (costar 3599) at a density of 40000 cells/well. Then compounds were added with serial dilutions over 10 points with a 0.04 nM-10 μM final concentration range in 0.1% DMSO/BLK-Blue Detection. The plates were then incubated for 16 hr at 37° C. in […] and vortex for 30s before measurement. The optical density at 620-655 nm was read on BMG PHLRAstar FSX instrument. The EC50 for each compound was determined by calculating the percentages of the maximum activation identified with Resiquimod.

[3] = molecular target: T2, human TLR7; assay: HEK293-Blue hTLR7 reporter assay (QUANTI-BLUE, SEAP readout); set-up: host or cells: HEK293 (HEK-Blue-hTLR7); settings: HEK-Blue-hTLR7 cells, QUANTI-BLUE assay (A1-A76), 24 hrs
Method in brief: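 Cells seeded at 4×10^4 per well in DMEM/10% heat-inactivated FBS, settled 5 h, then exposed to increasing compound amounts for 24 h at 37° C. Secreted SEAP in supernatant read with Quanti-blue at 620-655 nm after 10-30 min at 37° C.; EC50 from sigmoidal dose-response fit.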

Structure (SMILES): CCCC(CCO)Oc1nc(N)c2ncc(Cc3ccc(OCCNC)nc3)n2n1 (single isomer, unassigned) [Compound A81, (R or S) 3-((4-amino-7-((6-(2-(methylamino)ethoxy)pyridin-3-yl)methyl)imidazo[2,1-f][1,2,4]triazin-2-yl)oxy)hexan-1-ol]
- EC50 [1]: 6250 nM
- EC50 [2]: 310 nM

Structure (SMILES): CCCC(CCO)Oc1nc(N)c2ncc(Cc3ccc(OCCNC)nc3)n2n1 (single isomer, unassigned) [Compound A82, (S or R) 3-((4-amino-7-((6-(2-(methylamino)ethoxy)pyridin-3-yl)methyl)imidazo[2,1-f][1,2,4]triazin-2-yl)oxy)hexan-1-ol]
- EC50 [1]: 22 nM
- EC50 [2]: 5 nM

Structure (SMILES): CCCC(CCO)Oc1nc(N)c2ncc(Cc3ccc(OCCNC)cc3)n2n1 (single isomer, unassigned) [Compound A92, (R or S) 3-((4-amino-7-(4-(2-(methylamino)ethoxy)benzyl)imidazo[2,1-f][1,2,4]triazin-2-yl)oxy)hexan-1-ol]
- EC50 [1]: 872 nM
- EC50 [2]: 122 nM

Structure (SMILES): CCCC(CCO)Oc1nc(N)c2ncc(Cc3ccc(OCCNC)cc3)n2n1 (single isomer, unassigned) [Compound A93, (S or R) 3-((4-amino-7-(4-(2-(methylamino)ethoxy)benzyl)imidazo[2,1-f][1,2,4]triazin-2-yl)oxy)hexan-1-ol]
- EC50 [1]: 13.5 nM
- EC50 [2]: 1.7 nM

Structure (SMILES): CCCC(CCO)Oc1nc(N)c2ncc(Cc3ccc(OCCNC)cc3OC)n2n1 (single isomer, unassigned) [Compound A101, (R or S)-3-((4-amino-7-(2-methoxy-4-(2-(methylamino)ethoxy)benzyl)imidazo[2,1-f][1,2,4]triazin-2-yl)oxy)hexan-1-ol]
- EC50 [1]: 8.6 nM
- EC50 [2]: 0.78 nM

Structure (SMILES): CCCC(CCO)Oc1nc(N)c2ncc(Cc3ccc(OCCNC)c(C)c3)n2n1 (single isomer, unassigned) [Compound A103, (R or S)-3-((4-amino-7-(3-methyl-4-(2-(methylamino)ethoxy)benzyl)imidazo[2,1-f][1,2,4]triazin-2-yl)oxy)hexan-1-ol]
- EC50 [1]: 47 nM
- EC50 [2]: 2.4 nM

Structure (SMILES): CCCC(CCO)Oc1nc(N)c2ncc(Cc3cccc(OCCNC)c3)n2n1 (single isomer, unassigned) [Compound A104, (R or S)-3-((4-amino-7-(3-(2-(methylamino)ethoxy)benzyl)imidazo[2,1-f][1,2,4]triazin-2-yl)oxy)hexan-1-ol]
- EC50 [1]: 24 nM
- EC50 [2]: 10 nM

Structure (SMILES): CCCC(CCO)Oc1nc(N)c2ncc(Cc3ccc(OCCNC)c(F)c3)n2n1 (single isomer, unassigned) [Compound A105, (R or S)-3-((4-amino-7-(3-fluoro-4-(2-(methylamino)ethoxy)benzyl)imidazo[2,1-f][1,2,4]triazin-2-yl)oxy)hexan-1-ol]
- EC50 [1]: 622 nM
- EC50 [2]: 61 nM

Structure (SMILES): CCCC(CCO)Oc1nc(N)c2ncc(Cc3ccc(OCCNC)c(F)c3)n2n1 (single isomer, unassigned) [Compound A106, (S or R)-3-((4-amino-7-(3-fluoro-4-(2-(methylamino)ethoxy)benzyl)imidazo[2,1-f][1,2,4]triazin-2-yl)oxy)hexan-1-ol]
- EC50 [1]: 12 nM
- EC50 [2]: 1.6 nM

Structure (SMILES): CCCC(CCO)Oc1nc(N)c2ncc(Cc3ccc(OCCNC)cc3C)n2n1 (single isomer, unassigned) [Compound A107, (R or S)-3-((4-amino-7-(2-methyl-4-(2-(methylamino)ethoxy)benzyl)imidazo[2,1-f][1,2,4]triazin-2-yl)oxy)hexan-1-ol]
- EC50 [1]: 16 nM
- EC50 [2]: 1.3 nM

Structure (SMILES): CCCCOc1nc(N)c2ncc(Cc3ccc(CN4CCC(N)CC4)cc3)n2n1 [Compound A43, 7-(4-((4-aminopiperidin-1-yl)methyl)benzyl)-2-butoxyimidazo[2,1-f][1,2,4]triazin-4-amine]
- EC50 [1]: 255 nM
- EC50 [3]: 822 nM

Structure (SMILES): CCCCOc1nc(N)c2ncc(Cc3ccc(OCCNC)nc3)n2n1 [Compound A58, 2-butoxy-7-((6-(2-(methylamino)ethoxy)pyridin-3-yl)methyl)imidazo[2,1-f][1,2,4]triazin-4-amine]
- EC50 [1]: 183 nM
- EC50 [3]: 246 nM
